Values quoted from earlier work in US20210029988A1, “PEST REPELLENT COMPOSITION” (JGC CATALYSTS AND CHEMICALS LTD., priority 2018, published 2021).

Experiments:
[1] = within 6 hours

## CCN(CC)C(=O)c1cccc(C)c1 [DEET, N,N-diethyl-m-toluamide]
other
  Vapor pressure at 20°C (VP): 0.22 Pa
[1]
  Transdermally absorbed proportion of DEET applied on the skin: about 50%
